One experiment relates to Venturia inaequalis. The experiment can be described thus: In vivo fungicidal evaluation, Apple Scab (AS). Particulars: 200 ppm, plants sprayed before inoculation.
The subject of the next experiment is Plasmopara viticola. The experiment can be described thus: In vivo fungicidal evaluation, Grape Downy Mildew (GDM). To be noted: 200 ppm, plants sprayed before inoculation.
The test system of the next experiment is Botrytis cinerea. The experiment can be described thus: In vivo fungicidal evaluation, Pepper Botrytis (PB). To be noted: 200 ppm, plants sprayed before inoculation.
In another experiment the test system is Pyricularia oryzae. The class given is in vivo. Particulars: 200 ppm, plants sprayed before inoculation.
Another experiment deals with Cercospora beticola. In words: In vivo fungicidal evaluation, Sugar Beet Cercospora (SBC). Particulars: plants sprayed before inoculation.
In the next experiment the test system is Alternaria solani. In words: In vivo fungicidal evaluation, Tomato Early Blight (TEB). Particulars: 200 ppm, plants sprayed before inoculation.
Experiment [1] relates to Puccinia recondita f. sp. tritici. In words: In vivo fungicidal evaluation, Wheat Leaf Rust (WLR). To be noted: 200 ppm, plants sprayed before inoculation.
Experiment [2] deals with Erysiphe graminis f. sp. tritici. The experiment can be described thus: In vivo fungicidal evaluation, Wheat Powdery Mildew (WPM). Particulars: 200 ppm, plants sprayed before inoculation.
The test system of experiment [3] is Rhizoctonia solani. The experiment can be described thus: In vivo fungicidal evaluation, Rice Sheath Blight (RSB). To be noted: 400 ppm, plants sprayed before inoculation.
Experiment [4] relates to Fusarium oxysporum f. sp. cucumerinum. In words: In vitro fungicidal evaluation, growth inhibition (FUSOXC). The experiment is classed as cell-based. Also noted: scale not given here. To be noted: 25 ppm, 3-4 days at 21° C. As to the method: (§1) Test compounds are dissolved in acetone and dispersed into cell well plates containing a suspension of ground fungal mycelia in a nutrient broth. Assay plates are incubated for 3-4 days at 21° C. Growth inhibition is measured visually and is rated using the following scale:
(§2) Untreated controls, solvent blanks and reference standards are included in each test.
(§3) Assay fungi include the plant pathogens, Pythium ultimum (Pythul); Rhizoctonia solani (Rhizso); Fusarium oxysporum f. sp. cucumerinum (Fusoxc); and Pseudocercosporella herpotrichoides (Psdche).
(§4) When more than one test is run, the data are averaged.

For experiment [5], the system named is Pseudocercosporella herpotrichoides. The experiment can be described thus: In vitro fungicidal evaluation, growth inhibition (PSDCHE). The class given is cell-based. The arrangement: scale not given here. Particulars: 25 ppm, 3-4 days at 21° C. As to the method: as §1, §2, §3, §4
In the next experiment the test system is Pythium ultimum. In words: In vitro fungicidal evaluation, growth inhibition (PYTHUL). The arrangement: scale not given here. To be noted: 25 ppm, 3-4 days at 21° C. The experiment is classed as cell-based. As to the method:
as §1, §2, §3, §4

Experiment [6] concerns Rhizoctonia solani. The experiment can be described thus: In vitro fungicidal evaluation, growth inhibition (RHIZSO). The experiment is classed as cell-based. The arrangement: scale not given here. To be noted: 25 ppm, 3-4 days at 21° C. As to the method:
as §1, §2, §3, §4

Experiment [7] relates to Fusarium oxysporium f. sp. cucumerinum. The experiment can be described thus: Control of soil borne diseases, Cucumber Fusarium Wilt (CUFO). Further: ranges in brackets are in %. The class given is in vivo. Particulars: 14-18 days after treatment. As to the method:
(§5) Pasturized soil (100 mL) is added to 6 cm diameter plastic cups without drainage holes and covered with pathogen contaminated soil (30 mL). Ten germinated cucumber seeds are planted on the contaminated soil and the seeds are covered with pasteurized soil (20 mL). Test compounds are dissolved in acetone, diluted with deionized water containing about 0.05% TWEEN 20®, and applied to the pots by drenching the soil surface with 15 mL of test solution. The pots are placed in a greenhouse for disease development. The pots are watered lightly until plants emerge from the soil surface. Disease evaluations are made 14-18 days after treatment according to the rating scale shown below.

Another experiment relates to Pythium aphanidermantum. In words: Control of soil borne diseases, Cucumber damping-off by Pythium (CUPA). Further: ranges in brackets are in %. The class given is in vivo. Particulars: 14-18 days after treatment. As to the method: as §5
Experiment [8] has as its system Rhizoctonia solani. The experiment can be described thus: Control of soil borne diseases, Cucumber damping-off by Rhizoctonia (CURS). Further: ranges in brackets are in %. The class given is in vivo. To be noted: 14-18 days after treatment. As to the method: as §5

In the case of `CN([O-])C(=S)C(=O)C(C)(C)C.CN([O-])C(=S)C(=O)C(C)(C)C.[Zn+2]` [N,3,3-trimethyl-2-oxo-1-thiobutyrohydroxamic acid zinc(+2) chelate], the “disease control rating, AS” value in the experiment with Venturia inaequalis is 9.0. The “disease control rating, GDM” value with Plasmopara viticola is given as 9.0. The “disease control rating, PB” value in the experiment with Botrytis cinerea is reported as 8.5. Further, the “disease control rating, RB” value in the experiment with Pyricularia oryzae came to 8.0. For the same compound, the “disease control rating, SBC” value with Cercospora beticola (200 ppm) is 8.4; in the experiment on Cercospora beticola (400 ppm), 7.5. The “disease control rating, TEB” value in the experiment on Alternaria solani worked out at 8.5. The “disease control rating, WLR” value in experiment [1] was determined as 7.5. The “disease control rating, WPM” value in experiment [2] stood at 3.0. For the same compound, the “disease control rating, RSB” value in the experiment on Rhizoctonia solani [3] is given as 6.0. For the same compound, in [4], the “growth inhibition rating, FUSOXC” value came out at 4.5. In addition, the “growth inhibition rating, PSDCHE” value in experiment [5] was 4.0. Further, the “growth inhibition rating, PYTHUL” value in the experiment with Pythium ultimum was 8.5. Besides, the “growth inhibition rating, RHIZSO” value in the experiment on Rhizoctonia solani [6] is listed as 4.5. Also, the “disease control rating, CUFO” value is listed as 2 (15-25) in experiment [7] (2.5 kg/ha soil drench), 1 (5-10) in experiment [7] (5.0 kg/ha soil drench) and 4 (45-55) in experiment [7] (10.0 kg/ha soil drench). Also, the “disease control rating, CUPA” value with Pythium aphanidermantum (2.5 kg/ha soil drench) is listed as 0 (0); in the experiment on Pythium aphanidermantum (5.0 kg/ha soil drench) it was 2 (15-25); in the experiment with Pythium aphanidermantum (10.0 kg/ha soil drench) it was 4 (45-55). For the same compound, the figures for the “disease control rating, CURS” value in the experiment with Rhizoctonia solani [8] (2.5 kg/ha soil drench), with Rhizoctonia solani [8] (5.0 kg/ha soil drench) and with Rhizoctonia solani [8] (10.0 kg/ha soil drench) were 4 (45-55), 6 (75-85) and 9 (100), respectively.
On to `CC(C)N([O-])C(=S)C(=O)C(C)(C)C.CC(C)N([O-])C(=S)C(=O)C(C)(C)C.[Zn+2]` [N-isopropyl-3,3-dimethyl-2-oxo-1-thiobutyrohydroxamic acid zinc (+2) chelate], for which, in the experiment on Venturia inaequalis, the “disease control rating, AS” value was found to be 0.0. For the same compound, the “disease control rating, GDM” value in the experiment on Plasmopara viticola came to 3.0. Also, in the experiment with Botrytis cinerea, the “disease control rating, PB” value came out at 2.0. Besides, the “disease control rating, RB” value in the experiment with Pyricularia oryzae was found to be 0.0. Also, in the experiment with Cercospora beticola (200 ppm), the “disease control rating, SBC” value was 0.0. Moreover, the “disease control rating, TEB” value in the experiment with Alternaria solani came out at 0.0. Besides, the “disease control rating, WPM” value in experiment [2] worked out at 0.0. Moreover, the “growth inhibition rating, FUSOXC” value in experiment [4] amounted to 2.7. Besides, in experiment [5], the “growth inhibition rating, PSDCHE” value turned out to be 0.0. Moreover, the “growth inhibition rating, PYTHUL” value with Pythium ultimum amounted to 6.3. The “growth inhibition rating, RHIZSO” value in the experiment on Rhizoctonia solani [6] stood at 1.0.
For `CN(O)C(=S)C(=O)C12CC3CC(CC(C3)C1)C2` [N-methyl-α-thio-1-adamantaneglyoxylohydroxamic acid], the “disease control rating, AS” value in the experiment with Venturia inaequalis was determined as 0.0. The “disease control rating, GDM” value in the experiment with Plasmopara viticola turned out to be 0.0. The “disease control rating, PB” value with Botrytis cinerea came to 0.0. Also, the “disease control rating, RB” value in the experiment on Pyricularia oryzae was 0.0. Moreover, the “disease control rating, SBC” value in the experiment on Cercospora beticola (200 ppm) was 1.8; with Cercospora beticola (400 ppm), 3.0. Further, the “disease control rating, TEB” value in the experiment on Alternaria solani worked out at 0.0. Besides, in experiment [2], the “disease control rating, WPM” value was 0.0. Also, the “growth inhibition rating, FUSOXC” value in experiment [4] stood at 1.7. Moreover, the “growth inhibition rating, PSDCHE” value in experiment [5] is listed as 3.3. For the same compound, the “growth inhibition rating, PYTHUL” value in the experiment with Pythium ultimum is given as 7.0. Moreover, in the experiment on Rhizoctonia solani [6], the “growth inhibition rating, RHIZSO” value came out at 1.0.
Take `CN([O-])C(=S)C(=O)C(C)(C)C.CN([O-])C(=S)C(=O)C(C)(C)C.CN([O-])C(=S)C(=O)C(C)(C)C.[Fe+3]` [N,3,3-trimethyl-2-oxo-1-thiobutyrohydroxamic acid iron(+3) chelate]: the “disease control rating, AS” value in the experiment with Venturia inaequalis was 9.0. The “disease control rating, GDM” value in the experiment on Plasmopara viticola worked out at 8.5. Besides, the “disease control rating, PB” value in the experiment with Botrytis cinerea is 6.0. Also, the “disease control rating, RB” value with Pyricularia oryzae is given as 0.0. In addition, the “disease control rating, SBC” value is 8.2 in the experiment with Cercospora beticola (200 ppm) and 6.8 in the experiment on Cercospora beticola (400 ppm). In the experiment with Alternaria solani, the “disease control rating, TEB” value turned out to be 9.0. The “disease control rating, WLR” value in [1] worked out at 6.5. Besides, the “disease control rating, WPM” value in experiment [2] came to 5.5. Moreover, the “disease control rating, RSB” value in the experiment on Rhizoctonia solani [3] came out at 3.3. In addition, the “growth inhibition rating, FUSOXC” value in experiment [4] stood at 1.3. For the same compound, in [5], the “growth inhibition rating, PSDCHE” value worked out at 2.5. Besides, in the experiment with Pythium ultimum, the “growth inhibition rating, PYTHUL” value turned out to be 8.0. Further, the “growth inhibition rating, RHIZSO” value with Rhizoctonia solani [6] came out at 4.5. Also, the “disease control rating, CUFO” value in experiment [7] (2.5 kg/ha soil drench) was 1 (5-10); in experiment [7] (5.0 kg/ha soil drench) it was 2 (15-25); in [7] (10.0 kg/ha soil drench), 3 (30-40). Besides, the “disease control rating, CUPA” value is 0 (0) in the experiment with Pythium aphanidermantum (2.5 kg/ha soil drench), 1 (5-10) with Pythium aphanidermantum (5.0 kg/ha soil drench) and 2 (15-25) with Pythium aphanidermantum (10.0 kg/ha soil drench). Also, the “disease control rating, CURS” value in the experiment on Rhizoctonia solani [8] (2.5 kg/ha soil drench) was 4 (45-55); with Rhizoctonia solani [8] (5.0 kg/ha soil drench), 6 (75-85); in the experiment on Rhizoctonia solani [8] (10.0 kg/ha soil drench) it was 9 (100).
Consider `CC(C)(C)C(=O)C(=S)N([O-])Cc1ccccc1.CC(C)(C)C(=O)C(=S)N([O-])Cc1ccccc1.[Zn+2]` [N-benzyl-3,3-dimethyl-2-oxo-1-thiobutyrohydroxamic acid zinc(+2) chelate], for which, in the experiment with Venturia inaequalis, the “disease control rating, AS” value is 0.0. The “disease control rating, GDM” value in the experiment with Plasmopara viticola was 0.0. Besides, the “disease control rating, PB” value with Botrytis cinerea is listed as 0.0. Also, the “disease control rating, RB” value with Pyricularia oryzae is on record as 0.0. The “disease control rating, SBC” value with Cercospora beticola (200 ppm) is 6.0. For the same compound, the “disease control rating, TEB” value in the experiment with Alternaria solani stood at 0.0. The “disease control rating, WPM” value in [2] is on record as 0.0. Moreover, in experiment [4], the “growth inhibition rating, FUSOXC” value worked out at 0.0. For the same compound, the “growth inhibition rating, PSDCHE” value in experiment [5] was 0.0. The “growth inhibition rating, PYTHUL” value in the experiment with Pythium ultimum came out at 4.0. Besides, the “growth inhibition rating, RHIZSO” value with Rhizoctonia solani [6] came out at 0.0.
`CN(O)C(=S)C(=O)C(C)(C)C.CN(O)C(=S)C(=O)C(C)(C)C.[Mn+2]` [N,3,3-trimethyl-2-oxo-1-thiobutyrohydroxamic acid manganese(+2) chelate]: in the experiment with Venturia inaequalis, the “disease control rating, AS” value is 8.5. Besides, in the experiment with Plasmopara viticola, the “disease control rating, GDM” value was 5.5. Moreover, the “disease control rating, PB” value in the experiment with Botrytis cinerea came to 8.5. Further, the “disease control rating, RB” value with Pyricularia oryzae stood at 3.0. For the same compound, the “disease control rating, SBC” value in the experiment with Cercospora beticola (200 ppm) came to 7.5. For the same compound, the “disease control rating, TEB” value with Alternaria solani was determined as 8.5. For the same compound, the “disease control rating, WLR” value in experiment [1] is reported as 6.5. The “disease control rating, WPM” value in experiment [2] is given as 7.0. Besides, the “disease control rating, RSB” value in the experiment on Rhizoctonia solani [3] is reported as 0.0. Besides, the “growth inhibition rating, FUSOXC” value in experiment [4] was 0.0. Moreover, in experiment [5], the “growth inhibition rating, PSDCHE” value stood at 7.0. For the same compound, in the experiment on Pythium ultimum, the “growth inhibition rating, PYTHUL” value is 6.0. Further, the “growth inhibition rating, RHIZSO” value in the experiment on Rhizoctonia solani [6] was 4.5.

The values above are taken from patent US5342980A, “Fungicidal agents” (American Cyanamid Company, priority 1992, dated 1994).
